Consider one molecule from patent US9801831B2, “Device for controlled release of a bioactive agent” (Nanyang Technological University, priority 2010, dated 2017).

This data set can be described thus: Solubility limit of paclitaxel in release buffer. In kind it is physicochemical. The conditions noted are these: PBS/2% Tween-80 release buffer, pH 7.4, aqueous with cosolvent or surfactant or cyclodextrin.

The structures appear in SMILES notation. Converted amounts (≈) assume the structure as drawn.

Protocol: The in-vitro release of paclitaxel was conducted in 2 mL of PBS/% Tween 80 release buffer (pH 7.4) at 37° C. using 6 mm punch-outs (1 punch-out/well) in triplicate. At predetermined time-points 2 mL of buffer was removed and another 2 mL replaced with PBS/Tween 80 release buffer, maintaining sink conditions throughout the release. Withdrawn aliquots (or standards/dissolutions samples) were filtered through a 0.2 μm PTFE syringe filter directly into HPLC vials and immediately capped. Paclitaxel was quantified with an Agilent Series 1100 HPLC (Santa Clara, Calif., USA) equipped with UV/Vis detector, autosampler, and column heater set to 35° C. A ZORBAX Eclipse XDB-C18 (5 μm) column of acetonitrile/water 60/40 (v/v) served as the mobile buffer, eluting the paclitaxel peak at ˜5.4 minutes with a flow rate 1.0 mL/min and the UV/Vis detector recording at 227 nm. A total dissolution study of the 6 mm discs in triplicate was conducted by dissolving the films in acetone and diluting in release buffer to determine the surface concentration of paclitaxel (μg/mm^2).

For `CC(=O)O[C@H]1C(=O)[C@@]2(C)[C@H]([C@H](OC(=O)c3ccccc3)[C@]3(O)C[C@H](OC(=O)[C@H](O)[C@@H](NC(=O)c4ccccc4)c4ccccc4)C(C)=C1C3(C)C)[C@]1(OC(C)=O)CO[C@@H]1C[C@@H]2O` [paclitaxel], the solubility is 20 µg/mL (≈ 23.4 µM).

As a reminder, the solubility is the concentration that dissolves in the medium under given conditions. A high value points to much dissolved substance.
